Source: ChEMBL document CHEMBL4190403, “Design, synthesis, and biological evaluation of pyrazole derivatives containing acetamide bond as potential BRAFV600E inhibitors” (Bioorg Med Chem Lett, 2018)
pIC50: −log10 of the molar value.

Key:
[1] = target: Serine/threonine-protein kinase B-raf (Mus musculus, UniProt P28028, V600E); assay: Inhibition of full-length GST-tagged mouse BRAF V600E mutant using recombinant human full length N-terminal His-tagged MEK1 as substrate preincubated for 1 hr followed by substrate addition measured after 25 mins by Nu-page gel-based phosphor screen analysis
Serine/threonine-protein kinase B-raf, sequence (P28028 whole entry, looked up, stated change not applied): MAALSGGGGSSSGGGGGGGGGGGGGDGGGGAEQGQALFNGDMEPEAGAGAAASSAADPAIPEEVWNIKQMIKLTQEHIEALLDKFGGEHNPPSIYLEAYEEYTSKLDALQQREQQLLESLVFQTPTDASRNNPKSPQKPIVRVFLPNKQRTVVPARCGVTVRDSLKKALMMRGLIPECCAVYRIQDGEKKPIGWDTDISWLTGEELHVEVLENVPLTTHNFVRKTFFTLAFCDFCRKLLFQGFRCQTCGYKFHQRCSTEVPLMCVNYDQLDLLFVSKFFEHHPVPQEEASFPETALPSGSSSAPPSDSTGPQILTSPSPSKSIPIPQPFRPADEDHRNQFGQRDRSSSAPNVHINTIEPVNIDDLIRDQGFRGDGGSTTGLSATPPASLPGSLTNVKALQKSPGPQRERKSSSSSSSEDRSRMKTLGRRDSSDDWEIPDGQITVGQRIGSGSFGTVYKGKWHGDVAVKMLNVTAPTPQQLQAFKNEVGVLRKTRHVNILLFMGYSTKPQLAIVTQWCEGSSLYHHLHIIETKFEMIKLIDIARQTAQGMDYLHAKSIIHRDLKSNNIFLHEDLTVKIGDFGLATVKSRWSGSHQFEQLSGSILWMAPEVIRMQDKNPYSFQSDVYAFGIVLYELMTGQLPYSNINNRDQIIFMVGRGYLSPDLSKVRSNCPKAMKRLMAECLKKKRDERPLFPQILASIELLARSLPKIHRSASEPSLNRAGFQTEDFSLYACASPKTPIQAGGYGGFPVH

[2] = system: A-375; assay: Induction of apoptosis in human A375 cells assessed as late apoptotic cells at 1 uM after 24 hrs by Annexin V-FITC/propidium iodide staining based flow cytometry (reference value: 3.80 to 4.61%); type: functional
[3] = system: A-375; assay: Induction of apoptosis in human A375 cells assessed as viable cells at 10 uM after 24 hrs by Annexin V-FITC/propidium iodide staining based flow cytometry (reference value: 90.6 to 94.3%); type: functional; conditions: A-375, 24 h, read-out: Activity
[4] = system: A-375; assay: Induction of apoptosis in human A375 cells assessed as viable cells at 3 uM after 12 hrs by Annexin V-FITC/propidium iodide staining based flow cytometry (reference value: 90.6 to 94.3%); type: functional; conditions: A-375, 12 h, read-out: Activity
[5] = system: A-375; assay: Induction of apoptosis in human A375 cells assessed as necrotic cells at 3 uM after 36 hrs by Annexin V-FITC/propidium iodide staining based flow cytometry (reference value: 0.635 to 3.12%); type: functional
[6] = system: A-375; assay: Induction of apoptosis in human A375 cells assessed as early apoptotic cells at 3 uM after 36 hrs by Annexin V-FITC/propidium iodide staining based flow cytometry (reference value: 1.22 to 1.64%); type: functional
[7] = system: A-375; assay: Cell cycle arrest in human A375 cells assessed as accumulation at G1 phase at 1 uM after 24 hrs by propidium iodide staining-based flow cytometry (reference value: 59.02 to 60.22%); type: functional
[8] = system: A-375; assay: Cell cycle arrest in human A375 cells assessed as accumulation at G2/M phase at 1 uM after 24 hrs by propidium iodide staining-based flow cytometry (reference value: 7.91 to 21.07%); type: functional
[9] = system: A-375; assay: Induction of apoptosis in human A375 cells after 24 hrs by Annexin V-FITC/propidium iodide staining based flow cytometry; type: functional, cell-based
[10] = system: A-375; assay: Cell cycle arrest in human A375 cells assessed as accumulation at G1 phase at 3 uM by propidium iodide staining-based flow cytometry; type: functional; conditions: TDE = time-dependent effect

**Q.** With `COc1ccc(-n2cc(NC(=O)Cn3ccc(-c4cccc(Cl)c4)n3)cn2)cc1` as the compound, how does the pIC50 [1] read?
**A.** The pIC50 was 7.00.

**Q.** And the Activity [2]?
**A.** Its Activity is 14.1%.

**Q.** What about the viability at 10 µM [3] of the same compound?
**A.** Its viability at 10 µM is 53.2%.

**Q.** And the viability at 3 µM [4]?
**A.** The viability at 3 µM was 65.3%.

**Q.** And the Activity [5]?
**A.** Its Activity is 5.58%.

**Q.** And the Activity [6]?
**A.** Its Activity is 1.95%.

**Q.** What about the Activity [7] of the same compound?
**A.** Its Activity is 50.93%.

**Q.** What about the Activity [8] of the same compound?
**A.** Its Activity is 15.89%.

**Q.** What about the Activity [9] of the same compound?
**A.** The Activity was “Dose-dependent effect”.

**Q.** What about the Activity [10] of the same compound?
**A.** Its Activity is “Tde”.
